The source made the active and inactive calls. The rule behind the calls is not given here.
Columns and labels:
Rattus norvegicus [1] = experiment: Induction of circling behaviour in Sprague-Dawley rat administered into nucleus accumbens in presence of haloperidol; type: functional, organism-based
Rattus norvegicus [2] = experiment: Induction of stereotyped behaviour in sc dosed Sprague-Dawley rat; type: functional, organism-based
Rattus norvegicus [3] = experiment: Induction of circling behaviour in Sprague-Dawley rat administered into caudate putamen in presence of haloperidol; type: functional, organism-based
Felis catus [4] = experiment: Hypotensive activity in iv dosed cat in presence of haloperidol; type: functional, organism-based
Felis catus [5] = experiment: Hypotensive activity in iv dosed cat; type: functional, organism-based
Felis catus [6] = experiment: Inhibition of 2 Hz electric current-induced cardioaccelerator nerve stimulation in iv dosed cat by cardiotachometer analysis in presence of 2 mg/kg, iv phentolamine; type: functional, organism-based; set-up: dose 2 mg/kg; conditions: at 2 mg/kg
Rattus norvegicus [7] = experiment: Induction of hyperactivity in Sprague-Dawley rat administered into nucleus accumbens in presence of 0.2 to 0.8 mg/kg haloperidol; type: functional, organism-based
Rattus norvegicus [8] = experiment: Induction of circling behaviour in sc dosed Sprague-Dawley rat assessed as duration of action; type: functional
Rattus norvegicus [9] = experiment: Induction of stereotyped behaviour in Sprague-Dawley rat administered into caudate putamen in presence of 0.2 to 0.8 mg/kg haloperidol; type: functional, organism-based
Canis familiaris [10] = experiment: Induction of emesis in sc dosed dog; type: functional; conditions: Canis lupus familiaris
Rattus norvegicus [11] = experiment: Induction of stereotyped behaviour in sc dosed Sprague-Dawley rat assessed as duration of action; type: functional
Felis catus [12] = experiment: Inhibition of 10 Hz electric current-induced cardioaccelerator nerve stimulation in iv dosed cat by cardiotachometer analysis; type: functional, organism-based
Rattus norvegicus [13] = experiment: Effect on motor function in Sprague-Dawley rat administered into caudate putamen; type: functional, organism-based
Rattus norvegicus [14] = experiment: Induction of hyperactivity in Sprague-Dawley rat at 40 mg/kg, sc pretreated for 30 mins with 5 mg/kg aceperone; type: functional, organism-based
Rattus norvegicus [15] = experiment: Induction of hyperactivity in Sprague-Dawley rat administered into caudate putamen in presence of 0.2 to 0.8 mg/kg haloperidol; type: functional, organism-based
Rattus norvegicus [16] = experiment: Induction of hyperactivity in Sprague-Dawley rat at 40 mg/kg, sc; type: functional, organism-based; set-up: dose 40 mg/kg
Rattus norvegicus [17] = experiment: Induction of circling behaviour in sc dosed Sprague-Dawley rat in presence of 0.8 mg/kg haloperidol; type: functional, organism-based; set-up: dose 0.8 mg/kg
Rattus norvegicus [18] = experiment: Induction of hyperactivity in Sprague-Dawley rat at 40 mg/kg, sc pretreated for 30 mins with 0.4 mg/kg haloperidol; type: functional, organism-based
Felis catus [19] = experiment: Inhibition of 2 Hz electric current-induced cardioaccelerator nerve stimulation in iv dosed cat by cardiotachometer analysis in presence of 0.2 mg/kg, iv haloperidol; type: functional, organism-based; set-up: dose 0.2 mg/kg; conditions: at 0.2 mg/kg
Rattus norvegicus [20] = experiment: Induction of hyperactivity in Sprague-Dawley rat at 40 mg/kg, sc pretreated for 30 mins with 5 mg/kg propranolol; type: functional, organism-based
Rattus norvegicus [21] = experiment: Induction of circling behaviour in sc dosed Sprague-Dawley rat assessed as onset of action; type: functional
Felis catus [22] = species on record: Felis catus; experiment: Agonist activity at dopamine receptor in cat right atrium assessed as inhibition of cardiaccelerator nerve stimulation rate by cardiotachometer analysis; type: tissue-based; conditions: Cardiac atrium
Rattus norvegicus [23] = experiment: Induction of stereotyped behaviour in Sprague-Dawley rat administered into nucleus accumbens in presence of 0.2 to 0.8 mg/kg haloperidol; type: functional, organism-based
Rattus norvegicus [24] = experiment: Induction of stereotyped behaviour in sc dosed Sprague-Dawley rat pretreated for 30 mins with 0.4 mg/kg haloperidol; type: functional, organism-based; set-up: dose 0.4 mg/kg
Rattus norvegicus [25] = experiment: Induction of stereotyped behaviour in sc dosed Sprague-Dawley rat assessed as onset of action; type: functional
Felis catus [26] = experiment: Effect on heart rate in iv dosed cat; type: functional, organism-based
Felis catus [27] = experiment: Inhibition of 2 Hz electric current-induced cardioaccelerator nerve stimulation in iv dosed cat by cardiotachometer analysis; type: functional
Columba livia [28] = experiment: Induction of pecking in im dosed pigeon; type: functional, organism-based
Rattus norvegicus [29] = experiment: Induction of hyperactivity in Sprague-Dawley rat at 40 mg/kg, sc pretreated for 18 hrs with 5 mg/kg reserpine and 6 hrs with 250 mg/kg alpha-methyl-p-tyrosine; type: functional, organism-based
Columba livia [30] = experiment: Antagonism of apomorphine-induced pecking in im dosed pigeon treated 15 mins prior to apomorphine challenge; type: functional
Rattus norvegicus [31] = experiment: Induction of circling behaviour in Sprague-Dawley rat administered into caudate putamen in presence of propranolol; type: functional, organism-based
Rattus norvegicus [32] = experiment: Induction of hyperactivity in Sprague-Dawley rat at 2.5 to 20 mg/kg, sc; type: functional, organism-based
Rattus norvegicus [33] = experiment: Induction of circling behaviour in Sprague-Dawley rat administered into caudate putamen; type: functional, organism-based
Rattus norvegicus [34] = experiment: Induction of stereotyped behaviour in Sprague-Dawley rat administered into caudate putamen in presence of 5 mg/kg aceperone; type: functional, organism-based; set-up: dose 5 mg/kg
Canis familiaris [35] = experiment: Antagonism of apomorphine-induced emesis in sc dosed dog treated 15 mins prior to apomorphine challenge; type: functional, organism-based; conditions: Canis lupus familiaris
Rattus norvegicus [36] = experiment: Induction of stereotyped behaviour in Sprague-Dawley rat administered into nucleus accumbens; type: functional, organism-based
Rattus norvegicus [37] = experiment: Induction of hyperactivity in Sprague-Dawley rat administered into caudate putamen; type: functional, organism-based
Canis familiaris [38] = experiment: Toxicity in dog up to 2 mg/kg, sc; type: organism-based, Canis lupus familiaris; set-up: dose 2 mg/kg, route subcutaneous; conditions: in vivo
Rattus norvegicus [39] = experiment: Induction of stereotyped behaviour in Sprague-Dawley rat at 2.5 to 20 mg/kg, sc; type: functional, organism-based
Rattus norvegicus [40] = experiment: Induction of circling behaviour in Sprague-Dawley rat administered into caudate putamen in presence of aceperone; type: functional, organism-based
Rattus norvegicus [41] = experiment: Induction of stereotyped behaviour in Sprague-Dawley rat administered into nucleus accumbens in presence of 5 mg/kg propranolol; type: functional, organism-based; set-up: dose 5 mg/kg
Rattus norvegicus [42] = experiment: Induction of stereotyped behaviour in Sprague-Dawley rat administered into nucleus accumbens in presence of 5 mg/kg aceperone; type: functional, organism-based; set-up: dose 5 mg/kg
Rattus norvegicus [43] = experiment: Induction of stereotyped behaviour in Sprague-Dawley rat administered into caudate putamen in presence of 5 mg/kg propranolol; type: functional, organism-based; set-up: dose 5 mg/kg
Rattus norvegicus [44] = experiment: Induction of circling behaviour in Sprague-Dawley rat administered into nucleus accumbens in presence of propranolol; type: functional, organism-based
Rattus norvegicus [45] = experiment: Induction of circling behaviour in sc dosed Sprague-Dawley rat in presence of 5 mg/kg aceperone; type: functional, organism-based; set-up: dose 5 mg/kg
Rattus norvegicus [46] = experiment: Induction of stereotyped behaviour in Sprague-Dawley rat administered into caudate putamen; type: functional, organism-based
Rattus norvegicus [47] = experiment: Induction of circling behaviour in sc dosed Sprague-Dawley rat in presence of 5 mg/kg propranolol; type: functional, organism-based; set-up: dose 5 mg/kg
Rattus norvegicus [48] = experiment: Induction of hyperactivity in Sprague-Dawley rat administered into caudate putamen in presence of 5 mg/kg propranolol; type: functional, organism-based; set-up: dose 5 mg/kg
Rattus norvegicus [49] = experiment: Induction of circling behaviour in sc dosed Sprague-Dawley rat assessed as reversal of spontaneous ipsilateral to contralateral circling response; type: functional, organism-based
Rattus norvegicus [50] = experiment: Induction of hyperactivity in Sprague-Dawley rat administered into nucleus accumbens in presence of 5 mg/kg aceperone; type: functional, organism-based; set-up: dose 5 mg/kg
Rattus norvegicus [51] = experiment: Induction of hyperactivity in Sprague-Dawley rat administered into nucleus accumbens; type: functional, organism-based
Rattus norvegicus [52] = experiment: Induction of hyperactivity in Sprague-Dawley rat administered into caudate putamen in presence of 5 mg/kg aceperone; type: functional, organism-based; set-up: dose 5 mg/kg
Rattus norvegicus [53] = experiment: Induction of hyperactivity in Sprague-Dawley rat administered into nucleus accumbens in presence of 5 mg/kg propranolol; type: functional, organism-based; set-up: dose 5 mg/kg
Rattus norvegicus [54] = experiment: Induction of circling behaviour in Sprague-Dawley rat administered into nucleus accumbens; type: functional, organism-based
Rattus norvegicus [55] = experiment: Induction of circling behaviour in Sprague-Dawley rat administered into nucleus accumbens in presence of aceperone; type: functional, organism-based
Rattus norvegicus [56] = experiment: Induction of stereotyped behaviour in intrastriatally dosed Sprague-Dawley rat at 3.13 to 50 ug administered into caudate putamen; type: functional, organism-based
Felis catus [57] = experiment: Inhibition of 2 Hz electric current-induced cardioaccelerator nerve stimulation in cat at 10 umol/kg, iv by cardiotachometer analysis; type: functional, organism-based
Rattus norvegicus [58] = experiment: Induction of hyperactivity in Sprague-Dawley rat at 3.13 to 50 ug administered into nucleus accumbens; type: functional, organism-based
Rattus norvegicus [59] = experiment: Induction of stereotyped behaviour in intrastriatally dosed Sprague-Dawley rat at 3.13 to 50 ug administered into nucleus accumbens; type: functional, organism-based
Rattus norvegicus [60] = experiment: Induction of circling behaviour in Sprague-Dawley rat at 2.5 to 20 mg/kg, sc; type: functional, organism-based
Felis catus [61] = species on record: Felis catus; experiment: Agonist activity at dopamine receptor in cat right atrium assessed as inhibition of cardiaccelerator nerve stimulation rate at 10 umol/L by cardiotachometer analysis; type: tissue-based; conditions: Cardiac atrium
Rattus norvegicus [62] = experiment: Induction of hyperactivity in Sprague-Dawley rat at 3.13 to 50 ug administered into caudate putamen; type: functional, organism-based

## CCCN(CCC)CCc1ccc(O)c(O)c1
Rattus norvegicus [1]
  Activity: inactive
Rattus norvegicus [2]
  Activity: Dose-dependent effect
Rattus norvegicus [3]
  Activity: inactive
Felis catus [4]
  Activity: inactive
Felis catus [5]
  Activity: Active
Felis catus [6]
  inhibition: Active
Rattus norvegicus [7]
  Activity: inactive
Rattus norvegicus [8]
  Time: 5 min
Rattus norvegicus [9]
  Activity: inactive
Canis familiaris [10]
  ED50: 1 mg/kg
Rattus norvegicus [11]
  Time: 10 min
Felis catus [12]
  inhibition: inactive
Rattus norvegicus [13]
  Activity: inactive
Rattus norvegicus [14]
  Activity: Active
Rattus norvegicus [15]
  Activity: inactive
Rattus norvegicus [16]
  Activity: Active
Rattus norvegicus [17]
  Activity: inactive
Rattus norvegicus [18]
  Activity: inactive
Felis catus [19]
  inhibition: inactive
Rattus norvegicus [20]
  Activity: Active
Rattus norvegicus [21]
  Time: 3 min
Felis catus [22]
  ED50: 0.42 µM
Rattus norvegicus [23]
  Activity: inactive
Rattus norvegicus [24]
  Activity: inactive
Rattus norvegicus [25]
  Time: <5 min
Felis catus [26]
  Activity: inactive
Felis catus [27]
  ED50: 0.068 µmol/kg
Columba livia [28]
  Activity: inactive
Rattus norvegicus [29]
  Activity: Active
Columba livia [30]
  ED50: 56 µmol/kg

## CCN(CC)CCc1ccc(O)c(O)c1
Rattus norvegicus [31]
  Activity: Active
Rattus norvegicus [1]
  Activity: inactive
Rattus norvegicus [32]
  Activity: inactive
Rattus norvegicus [33]
  Activity: Active
Rattus norvegicus [34]
  Activity: Active
Canis familiaris [35]
  inhibition: inactive
Rattus norvegicus [3]
  Activity: inactive
Felis catus [4]
  Activity: inactive
Felis catus [5]
  Activity: Active
Rattus norvegicus [36]
  Activity: Active
Felis catus [6]
  inhibition: Active
Rattus norvegicus [37]
  Activity: Active
Rattus norvegicus [7]
  Activity: inactive
Rattus norvegicus [8]
  Time: 5 min
Canis familiaris [38]
  Activity: Non-toxic
Rattus norvegicus [9]
  Activity: inactive
Rattus norvegicus [39]
  Activity: inactive
Canis familiaris [10]
  ED50: inactive
Rattus norvegicus [40]
  Activity: Active
Rattus norvegicus [41]
  Activity: Active
Rattus norvegicus [42]
  Activity: Active
Felis catus [12]
  inhibition: inactive
Rattus norvegicus [43]
  Activity: Active
Rattus norvegicus [44]
  Activity: Active
Rattus norvegicus [45]
  Activity: Active
Rattus norvegicus [46]
  Activity: Active
Rattus norvegicus [47]
  Activity: Active
Rattus norvegicus [15]
  Activity: inactive
Rattus norvegicus [17]
  Activity: inactive
Rattus norvegicus [48]
  Activity: Active
Felis catus [19]
  inhibition: inactive
Rattus norvegicus [49]
  Activity: Active
Rattus norvegicus [50]
  Activity: Active
Rattus norvegicus [21]
  Time: 3 min
Felis catus [22]
  ED50: 0.34 µM
Rattus norvegicus [51]
  Activity: Active
Rattus norvegicus [23]
  Activity: inactive
Felis catus [26]
  Activity: inactive
Rattus norvegicus [52]
  Activity: Active
Felis catus [27]
  ED50: 0.041 µmol/kg
Rattus norvegicus [53]
  Activity: Active
Columba livia [28]
  Activity: inactive
Columba livia [30]
  ED50: inactive
Rattus norvegicus [54]
  Activity: Active
Rattus norvegicus [55]
  Activity: Active

## CCCCN(CCCC)CCc1ccc(O)c(O)c1
Rattus norvegicus [32]
  Activity: inactive
Rattus norvegicus [56]
  Activity: inactive
Felis catus [57]
  inhibition: inactive
Felis catus [5]
  Activity: inactive
Rattus norvegicus [39]
  Activity: inactive
Felis catus [12]
  inhibition: inactive
Rattus norvegicus [58]
  Activity: inactive
Rattus norvegicus [59]
  Activity: inactive
Rattus norvegicus [60]
  Activity: inactive
Felis catus [26]
  Activity: inactive
Felis catus [61]
  inhibition: inactive
Columba livia [28]
  Activity: inactive
Rattus norvegicus [62]
  Activity: inactive

From ChEMBL document CHEMBL3244265, “Preparation and biological actions of some symmetrically N,N-disubstituted dopamines” (J Med Chem, 1978)
